The target of test [1] is T1, human MAT2A (Homo sapiens, UniProt P31153). Briefly: ATP analogues as alternative substrates of MAT2A. In kind it is biochemical. Conditions: Figure 5C.
The target in test [2] is T1, human MAT2A. Nature of the test: Product inhibition of MAT2A by AdoMet. Format: biochemical. To be noted: non-competitive.
The target in test [3] is T1, human MAT2A. Nature of the test: Triphosphate hydrolysis by MAT2A. Format: biochemical. To be noted: for Km: read-out: Km of triphosphate hydrolysis.
For test [4], the target named is T1, human MAT2A. Nature of the test: HPLC assay of ATPase activity of MAT2A. Format: biochemical. To be noted: 80 μM AdoMet or 10 μM ammonium vanadate.
Test [5] concerns the target T1, human MAT2A. Briefly: Thermal melt of MAT2A with Sypro Orange and ligands. To be noted: 10 mM MgCl2.
Test [6] has as its target T1, human MAT2A. Nature of the test: Inhibition of MAT2A by PNP or PPNP. To be noted: non-competitive.
Test [7] addresses T1, human MAT2A. To be noted: varied substrate; fits to data of Fig. 2.
The target in test [8] is T1, human MAT2A. Nature of the test: Inhibition of MAT2A by ATP and triphosphate analogues. In kind it is biochemical.
[9] abbreviates: 1 mM methionine and 200 μM ATP, NO = no significant inhibition observed.

“And” between values parts separate entries of the source, which are not always exact repeats. Equal entries are not always repeated. Where two headings read alike, the source gives them in different places.

T1 sequence (P31153 whole entry): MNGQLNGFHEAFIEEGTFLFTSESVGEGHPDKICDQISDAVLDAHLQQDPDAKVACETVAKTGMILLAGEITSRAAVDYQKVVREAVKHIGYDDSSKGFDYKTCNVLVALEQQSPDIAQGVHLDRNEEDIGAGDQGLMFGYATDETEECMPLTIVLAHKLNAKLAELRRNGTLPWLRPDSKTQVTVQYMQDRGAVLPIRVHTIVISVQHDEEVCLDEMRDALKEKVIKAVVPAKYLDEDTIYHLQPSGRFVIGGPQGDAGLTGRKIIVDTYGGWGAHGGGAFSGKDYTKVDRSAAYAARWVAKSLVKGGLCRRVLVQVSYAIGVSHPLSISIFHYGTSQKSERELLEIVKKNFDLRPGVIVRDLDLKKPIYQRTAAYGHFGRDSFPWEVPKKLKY

For `Nc1ncnc2c1ncn2[C@@H]1O[C@H](COP(=O)(O)CP(=O)(O)OP(=O)(O)O)[C@@H](O)[C@H]1O` [AMPCPP], at human MAT2A [1], the “production of orthophosphate from methionine and ATP analogue” value is reported as “phosphate formation”.

On to `C[S+](CC[C@H](N)C(=O)[O-])C[C@H]1O[C@@H](n2cnc3c(N)ncnc32)[C@H](O)[C@@H]1O` (stereo partly drawn) [AdoMet, S-Adenosyl-L-methionine], for which the values for the Ki on human MAT2A [2] (with respect to ATP) and at human MAT2A [2] (with respect to methionine) were 136 ± 7 µM and 81 ± 10 µM, respectively. In addition, at human MAT2A [3] (AdoMet at 150 μM versus no AdoMet), the “activation of triphosphate hydrolysis” value is 3.5 fold. The “effect on the ATPase reaction of MAT2A” value at human MAT2A [4] is “inhibited”. In addition, at human MAT2A [5], the “thermal stabilization of MAT2A, in words” value is on record as “did little to increase MAT2A stability”.

For the compound `O=P(O)(O)NP(=O)(O)O` [Imidodiphosphate], the Ki worked out at 14 ± 1 µM on human MAT2A [6] (Ki, toward ATP) and 17 ± 2 µM at human MAT2A [6] (Ki, toward methionine).

In the case of `CSCC[C@H](N)C(=O)O` [Methionine], the kcat on human MAT2A [7] worked out at 0.27 ± 0.01 s⁻¹. For the same compound, the “shift of thermal melt temperature (Tm) compared to MAT2A alone” value on human MAT2A [5] is 1-3 °C.

On to `O=P(O)(O)NP(=O)(O)NP(=O)(O)O` [PNPNP, (α–β, β–γ)-diimido triphosphate], for which the inhibitory constant (Ki) is 0.12 ± 0.03 µM at human MAT2A [8] (setting [9]) and 0.115 µM on human MAT2A [8] (read-out: Ki (inhibitor)). At human MAT2A [8] (PNPNP versus PPNP), the “increased affinity compared to PPNP” value was roughly 10 fold. The “shift of thermal melt temperature (Tm) compared to MAT2A alone” value at human MAT2A [5] is greater than 50 °C.

Consider `O=P(O)(O)NP(=O)(O)OP(=O)(O)O` [PPNP, Imidotriphosphate], for which the results for the Ki on human MAT2A [6] (toward ATP) and at human MAT2A [6] (toward methionine) were 0.86 ± 0.06 µM and 0.76 ± 0.07 µM, respectively.

Take `O=P(O)(O)OP(=O)(O)OP(=O)(O)O` [Triphosphate]: the “rate of triphosphate hydrolysis” value at human MAT2A [3] (AdoMet at 150 μM) was determined as 0.07 ± 0.01 s⁻¹; at human MAT2A [3] (without AdoMet present), 0.020 ± 0.003 s⁻¹. In addition, the “kcat of triphosphate hydrolysis” value at human MAT2A [3] (AdoMet at 1 mM) is 0.033 ± 0.003 s⁻¹. The Km on human MAT2A [3] (AdoMet at 150 μM) came out at 6 ± 2 µM; at human MAT2A [3] (without AdoMet present) it was 4 ± 2 µM. Moreover, the Ki on human MAT2A [8] (setting [9]) was 3.45 µM and 3.4 µM. For the same compound, the “thermal stabilization of MAT2A, in words” value on human MAT2A [5] is “large shifts in the Tm”.

Turning to `O=P(O)(O)OP(=O)(O)O` [pyrophosphate], the “thermal stabilization of MAT2A, in words” value at human MAT2A [5] is recorded as “large shifts in the Tm”.

In the case of phosphate, the “thermal stabilization of MAT2A, in words” value on human MAT2A [5] is given as “did little to increase MAT2A stability”.

Values taken from paper PMC8315116 (Biochemistry, 2021).
